How the values were obtained:
[1] = Selectivity index, ratio of CC50 for mouse MC3T3-G2/PA6 cells to IC50 for inhibition of lipid droplet accumulation in mouse MC3T3-G2/PA6 cells; type: functional
[2] = Cytotoxicity against mouse MC3T3-G2/PA6 cells assessed as cell viability by MTT assay; type: cell-based
[3] = Antiadipogenic activity in mouse MC3T3-G2/PA6 cells assessed as inhibition of lipid droplet accumulation after 6 days; type: functional, cell-based; conditions: MC3T3-G2/PA6, 144 h

IC50 [3] | SMILES | Ratio CC50/IC50 [1] | CC50 [2]
7.7 µM | CCO[C@@H]1[C@@H]2OC[C@]3(C)C=CC(=O)[C@](C)([C@H]4CC[C@]5(C)C(=CC[C@H]5c5ccoc5)[C@@]41C)[C@@H]23 | 2.7 | 20.6 µM
8.5 µM | COCO[C@@H]1[C@@H]2OC[C@]3(C)C=CC(=O)[C@](C)([C@H]4CC[C@]5(C)C(=CC[C@H]5c5ccoc5)[C@@]41C)[C@@H]23 | 2.3 | 19.7 µM
8.8 µM | CC(=O)O[C@@H]1[C@@H]2OC[C@]3(C)C=CC(=O)[C@](C)([C@H]4CC[C@]5(C)C(=CC[C@H]5c5ccoc5)[C@@]41C)[C@@H]23 | 3 | 26.2 µM
7.3 µM | C[C@]12C3=CC[C@@H](c4ccoc4)[C@]3(C)CC[C@@H]1[C@@]1(C)C(=O)C=C[C@@]3(C)CO[C@@H]([C@H]2OC(=O)C(F)(F)F)[C@H]13 | 1.9 | 13.7 µM
> 50 µM | C[C@]12C3=CC[C@@H](c4ccoc4)[C@]3(C)CC[C@@H]1[C@@]1(C)C(=O)C=C[C@@]3(C)CO[C@@H]([C@H]2OC(=O)c2ccccc2)[C@H]13 |  | > 50 µM
18.7 µM | C[C@]12C3=CC[C@@H](c4ccoc4)[C@]3(C)CC[C@@H]1[C@@]1(C)C(=O)C=C[C@@]3(C)CO[C@@H]([C@H]2OC(=O)c2ccncc2)[C@H]13 | 0.9 | 17.2 µM
> 50 µM | C[C@]12CCC(=O)[C@]3(C)[C@H]4CC[C@]5(C)C(=CCC5C5CCOC5)[C@]4(C)[C@H](O)[C@H](OC1)[C@@H]23 (stereo partly specified) |  | > 50 µM
29.5 µM | C[C@@]12C(=O)C=C[C@@]3(C)COC(=C[C@@]4(C)C5=CC[C@@H](c6ccoc6)[C@]5(C)CC[C@H]14)[C@H]23 | >1.7 | > 50 µM
20.8 µM | C[C@@]12CCC(O)[C@@]3(C)[C@H]1[C@@H](OC2)[C@@H](O)[C@@]1(C)C2=CC[C@@H](c4ccoc4)[C@]2(C)CC[C@@H]13 (stereo partly specified) | >2.4 | > 50 µM
44.1 µM | CC(=O)O[C@H]1[C@@H](O)[C@@]2(C)C3=CC[C@@H](c4ccoc4)[C@]3(C)CC[C@@H]2[C@@]2(C)C(=O)[C@H]3O[C@H]3[C@]3(CO3)[C@H]12 [CERAMICINE E] | 1.1 | 48.4 µM
22.4 µM | C[C@@]1(C=O)C=CC(=O)[C@]2(C)[C@H]3CC[C@]4(C)C(=CC[C@H]4c4ccoc4)[C@]3(C)[C@H](O)[C@H](O)[C@@H]12 [CERAMICINE F] | 1.1 | 25 µM
38.4 µM | COC(=O)[C@]1(C)C=CC(=O)[C@]2(C)[C@H]3CC[C@]4(C)C(=CC[C@H]4c4ccoc4)[C@]3(C)[C@H](O)[C@H](O)[C@H]21 [CERAMICINE G] | 1.9 | 72.9 µM
> 50 µM | C/C=C(\C)C(=O)O[C@H]1C[C@H]2[C@](C)(C3=CC[C@@H](c4ccoc4)[C@@]31C)[C@H](O)[C@@H]1OC[C@]3(C)C=CC(=O)[C@@]2(C)[C@@H]13 [CERAMICINE H] |  | > 50 µM
41 µM | CC(=O)O[C@H]1C[C@H]2[C@](C)(C3=CC[C@@H](c4ccoc4)[C@@]31C)[C@H](O)[C@@H]1OC[C@]3(C)C=CC(=O)[C@@]2(C)[C@@H]13 [CERAMICINE I] | >1.2 | > 50 µM
> 50 µM | C[C@@]12CC[C@@H]3[C@@]4(C)C(=O)C=C[C@@]5(C)CO[C@@H]([C@@H](O)[C@@]3(C)[C@@H]1C(=O)C[C@H]2c1ccoc1)[C@H]45 [CERAMICINE J] |  | > 50 µM
> 50 µM | CC(=O)O[C@H]1C=CC(=O)[C@@]2(C)[C@H]1[C@@H](O)[C@@H](O)[C@@]1(C)C3=CC[C@@H](c4ccoc4)[C@]3(C)CC[C@H]21 [CERAMICINE K] |  | > 50 µM
> 50 µM | C[C@]12C3=CC[C@@H](c4ccoc4)[C@]3(C)CC[C@@H]1[C@@]1(C)C(=O)C=C[C@@](C)(O)[C@@H]1[C@@H](O)[C@H]2O [CERAMICINE L] |  | > 50 µM
6.2 µM | CC(=O)O[C@@H]1[C@H]2[C@@H](O)C=CC(=O)[C@]2(C)[C@H]2CC[C@]3(C)C(=CC[C@H]3c3ccoc3)[C@]2(C)[C@@H]1O [CERAMICINES A] | 5 | 30.7 µM
19.1 µM | C=C(C)C(=O)O[C@H]1C[C@H]2[C@](C)(C3=CC[C@@H](c4ccoc4)[C@@]31C)[C@H](O)[C@@H]1OC[C@]3(C)C=CC(=O)[C@@]2(C)[C@@H]13 [CERAMICINES C] | 1.2 | 21.9 µM
> 50 µM | C[C@]12C3=CC[C@@H](C4=CCOC4=O)[C@]3(C)CC[C@@H]1[C@@]1(C)C(=O)C=C[C@@]3(C)CO[C@@H]([C@H]2O)[C@H]13 [CERAMICINES D] |  | > 50 µM

SMILES | IC50 [3] | Ratio CC50/IC50 [1] | CC50 [2]
C[C@]12C3=CC[C@@H](c4ccoc4)[C@]3(C)CC[C@@H]1[C@@]1(C)C(=O)C=C[C@@]3(C)CO[C@@H]([C@H]2O)[C@H]13 [CERAMICINES B] | 1.8 µM | 8.8 | 15.9 µM
